The supplement of paper PMC10307832

Tests used:
Assay in all cases: relative viability (nuclei count vs DMSO), 5 days (fraction); higher = more cells survive
NCI-H1437 = test system: NCI-H1437
Procedure, shortened: (§1)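 A single step with final 0.05% Triton X-100, 1% formaldehyde and 1 ug/ml Hoechst fixed the cells and stained nuclei 5 days after treatment. Lung cancer cell lines in 1536-well plates had been treated by pin tool the day after seeding with one drug alone or a fixed anchor-drug dose plus five library-drug doses (not always all listed) in √10 steps, and nuclei were counted on 4× images. Relative viability is the ratio of nuclei in treated wells to nuclei in vehicle wells, taken as the median of duplicate plates.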

HCC-366 = test system: HCC-366
Procedure, shortened: as §1

H3255 = test system: H3255
Procedure, shortened: as §1

LC-2-ad = test system: LC-2-ad
Procedure, shortened: as §1

PC-14 = test system: PC-14
Procedure, shortened: as §1

NCI-H661 = test system: NCI-H661
Procedure, shortened: as §1

NCI-H1666 = test system: NCI-H1666
Procedure, shortened: as §1

NCI-H2087 = test system: NCI-H2087
Procedure, shortened: as §1

HCC-15 = test system: HCC-15
Procedure, shortened: as §1

ABC-1 = test system: ABC-1
Procedure, shortened: as §1

LXF-289 = test system: LXF-289
Procedure, shortened: as §1

HCC-827 = test system: HCC-827
Procedure, shortened: as §1

UMC-11 = test system: UMC-11
Procedure, shortened: as §1

LCLC-103H = test system: LCLC-103H
Procedure, shortened: as §1

COR-L23 = test system: COR-L23
Procedure, shortened: as §1

NCI-H2085 = test system: NCI-H2085
Procedure, shortened: as §1

NCI-H1975 = test system: NCI-H1975
Procedure, shortened: as §1

PC-3 [JPC-3] = test system: PC-3 [JPC-3]
Procedure, shortened: as §1

NCI-H23 = test system: NCI-H23
Procedure, shortened: as §1

NCI-H2228 = test system: NCI-H2228
Procedure, shortened: as §1

SK-MES-1 = test system: SK-MES-1
Procedure, shortened: as §1

Molecule Cc1cn(-c2cc(NC(=O)c3ccc(C)c(Nc4nccc(-c5cccnc5)n4)c3)cc(C(F)(F)F)c2)cn1 [Nilotinib] + C[C@@H](Oc1cc(-c2cnn(C3CCNCC3)c2)cnc1N)c1c(Cl)ccc(F)c1Cl [Crizotinib] (partner 1 µM) has a relative viability (NCI-H1437; first compound 0.001 µM) of 0.789, a relative viability (NCI-H1437; first compound 0.003162 µM) of 1.25 and a relative viability (NCI-H1437; first compound 0.01 µM) of 1.13. The relative viability (NCI-H1437; first compound 0.03162 µM) was 0.705, the relative viability (NCI-H1437; first compound 0.1 µM) was 0.866 and the relative viability (HCC-366; first compound 0.001 µM) was 0.484. It also gave a relative viability (HCC-366; first compound 0.003162 µM) of 0.627, a relative viability (HCC-366; first compound 0.01 µM) of 1.38 and a relative viability (HCC-366; first compound 0.03162 µM) of 0.389. It also gave a relative viability (HCC-366; first compound 0.1 µM) of 0.609, a relative viability (H3255; first compound 0.001 µM) of 0.773 and a relative viability (H3255; first compound 0.003162 µM) of 0.99. It also gave a relative viability (H3255; first compound 0.01 µM) of 1.07, a relative viability (H3255; first compound 0.03162 µM) of 0.814 and a relative viability (H3255; first compound 0.1 µM) of 1.11. For the same molecule, the relative viability (LC-2-ad; first compound 0.001 µM) was 0.43, the relative viability (LC-2-ad; first compound 0.003162 µM) was 0.436 and the relative viability (LC-2-ad; first compound 0.01 µM) was 0.449. It also gave a relative viability (LC-2-ad; first compound 0.03162 µM) of 0.42, a relative viability (LC-2-ad; first compound 0.1 µM) of 0.522 and a relative viability (PC-14; first compound 0.001 µM) of 0.871. It also gave a relative viability (PC-14; first compound 0.003162 µM) of 0.941, a relative viability (PC-14; first compound 0.01 µM) of 1.11 and a relative viability (PC-14; first compound 0.03162 µM) of 0.861. For the same molecule, the relative viability (PC-14; first compound 0.1 µM) was 0.945, the relative viability (NCI-H661; first compound 0.001 µM) was 0.879 and the relative viability (NCI-H661; first compound 0.003162 µM) was 1.12. For the same molecule, the relative viability (NCI-H661; first compound 0.01 µM) was 1.03, the relative viability (NCI-H661; first compound 0.03162 µM) was 0.945 and the relative viability (NCI-H661; first compound 0.1 µM) was 0.93. It also gave a relative viability (NCI-H1666; first compound 0.001 µM) of 0.826, a relative viability (NCI-H1666; first compound 0.003162 µM) of 0.983 and a relative viability (NCI-H1666; first compound 0.01 µM) of 0.964. For the same molecule, the relative viability (NCI-H1666; first compound 0.03162 µM) was 0.936, the relative viability (NCI-H1666; first compound 0.1 µM) was 1.11 and the relative viability (NCI-H2087; first compound 0.001 µM) was 0.626. It also gave a relative viability (NCI-H2087; first compound 0.003162 µM) of 0.806, a relative viability (NCI-H2087; first compound 0.01 µM) of 0.947 and a relative viability (NCI-H2087; first compound 0.03162 µM) of 0.702. The relative viability (NCI-H2087; first compound 0.1 µM) was 0.667, the relative viability (HCC-15; first compound 0.001 µM) was 0.723 and the relative viability (HCC-15; first compound 0.003162 µM) was 0.96. For the same molecule, the relative viability (HCC-15; first compound 0.01 µM) was 1.1, the relative viability (HCC-15; first compound 0.03162 µM) was 0.58 and the relative viability (HCC-15; first compound 0.1 µM) was 0.687. For the same molecule, the relative viability (ABC-1; first compound 0.001 µM) was 1.16, the relative viability (ABC-1; first compound 0.003162 µM) was 1.03 and the relative viability (ABC-1; first compound 0.01 µM) was 1.5. It also gave a relative viability (ABC-1; first compound 0.03162 µM) of 0.913, a relative viability (ABC-1; first compound 0.1 µM) of 1.34 and a relative viability (LXF-289; first compound 0.001 µM) of 0.806. The relative viability (LXF-289; first compound 0.003162 µM) was 0.885, the relative viability (LXF-289; first compound 0.01 µM) was 0.923 and the relative viability (LXF-289; first compound 0.03162 µM) was 0.731. For the same molecule, the relative viability (LXF-289; first compound 0.1 µM) was 0.765, the relative viability (HCC-827; first compound 0.001 µM) was 0.936 and the relative viability (HCC-827; first compound 0.003162 µM) was 0.954. The relative viability (HCC-827; first compound 0.01 µM) was 0.893, the relative viability (HCC-827; first compound 0.1 µM) was 0.91 and the relative viability (UMC-11; first compound 0.001 µM) was 0.561. For the same molecule, the relative viability (UMC-11; first compound 0.003162 µM) was 0.525, the relative viability (UMC-11; first compound 0.01 µM) was 0.585 and the relative viability (UMC-11; first compound 0.1 µM) was 0.68. The relative viability (LCLC-103H; first compound 0.003162 µM) was 1.07, the relative viability (LCLC-103H; first compound 0.03162 µM) was 0.945 and the relative viability (LCLC-103H; first compound 0.1 µM) was 1.08. It also gave a relative viability (COR-L23; first compound 0.001 µM) of 0.601, a relative viability (COR-L23; first compound 0.003162 µM) of 0.625 and a relative viability (COR-L23; first compound 0.01 µM) of 0.848. The relative viability (COR-L23; first compound 0.03162 µM) was 0.465, the relative viability (COR-L23; first compound 0.1 µM) was 0.625 and the relative viability (NCI-H2085; first compound 0.001 µM) was 0.982. The relative viability (NCI-H2085; first compound 0.003162 µM) was 0.895, the relative viability (NCI-H2085; first compound 0.01 µM) was 0.971 and the relative viability (NCI-H2085; first compound 0.03162 µM) was 0.721. The relative viability (NCI-H2085; first compound 0.1 µM) was 0.884, the relative viability (NCI-H1975; first compound 0.001 µM) was 0.811 and the relative viability (NCI-H1975; first compound 0.003162 µM) was 1.11. It also gave a relative viability (NCI-H1975; first compound 0.01 µM) of 1.16, a relative viability (NCI-H1975; first compound 0.03162 µM) of 0.616 and a relative viability (NCI-H1975; first compound 0.1 µM) of 0.907. For the same molecule, the relative viability (PC-3 [JPC-3]; first compound 0.001 µM) was 0.987, the relative viability (PC-3 [JPC-3]; first compound 0.003162 µM) was 1.23 and the relative viability (PC-3 [JPC-3]; first compound 0.01 µM) was 1.06. It also gave a relative viability (PC-3 [JPC-3]; first compound 0.03162 µM) of 0.882, a relative viability (PC-3 [JPC-3]; first compound 0.1 µM) of 0.88 and a relative viability (NCI-H23; first compound 0.001 µM) of 0.471. The relative viability (NCI-H23; first compound 0.003162 µM) was 0.442, the relative viability (NCI-H23; first compound 0.01 µM) was 0.6 and the relative viability (NCI-H23; first compound 0.03162 µM) was 0.328. The relative viability (NCI-H23; first compound 0.1 µM) was 0.378, the relative viability (NCI-H2228; first compound 0.001 µM) was 0.53 and the relative viability (NCI-H2228; first compound 0.003162 µM) was 0.418. The relative viability (NCI-H2228; first compound 0.01 µM) was 0.606, the relative viability (NCI-H2228; first compound 0.03162 µM) was 0.461 and the relative viability (NCI-H2228; first compound 0.1 µM) was 0.294. The relative viability (SK-MES-1; first compound 0.003162 µM) was 1.09, the relative viability (SK-MES-1; first compound 0.01 µM) was 1.06 and the relative viability (SK-MES-1; first compound 0.03162 µM) was 0.994. The relative viability (SK-MES-1; first compound 0.1 µM) was 0.982.
